This is an account of results in patent US20020099098A1, “Method for treating sexual disorders” (priority 2001, published 2002).

For the assay, the system named is patients. Kind of assay: randomised placebo-controlled double-blind study of deramciclane. The conditions noted are these: for number of patients with decreased libido: placebo 2 out of 51, p=0.04, Chi-square-test. In kind it is in vivo. The method, then: The effects of deramciclane were studied in a randomised placebo-controlled double-blind study. The subjects were randomly assigned to four parallel groups to receive one tablet twice daily (b.i.d) of a placebo, 5 mg (=10 mg/day), 15 mg (=30 mg/day), or 30 mg (=60 mg/day) deramciclane.
When analyzing the number of patients with decreased libido, 2 out of 51 patients on placebo experienced it, but none of the patients treated with deramciclane 15 mg b.i.d. (n=53) or 30 mg b.i.d.(n=54) experienced decreased libido (p=0.04, Chi-square-test). In addition, when the Udvalg for Kliniske Undersogelser (UKU) scale was used, 21% of 53 patients experienced orgastic dysfunction at the baseline but only 12% of them after 8-week treatment with deramciclane 15 mg b.i.d.

On to `CN(C)CCO[C@]1(c2ccccc2)C[C@H]2CC[C@]1(C)C2(C)C` [deramciclane, (1R,2S,4R)-(−)-2-phenyl 2-(dimethylaminoethoxy)-1,7,7-trimethyl-bicyclo[2.2.1]heptane], for which the “patients experiencing orgastic dysfunction (UKU scale)” value (after 8-week treatment with deramciclane 15 mg b.i.d., baseline 21% of 53 patients) was 12%. The “number of patients with decreased libido” value is recorded as “none” (deramciclane 15 mg b.i.d. (=30 mg/day), n=53) and “none” (deramciclane 30 mg b.i.d. (=60 mg/day), n=54).
